Experimental data taken from PubChem BioAssay (NCI).
Several values for one entry are separate records, joined by “and”; a condition that tells them apart may be missing. Identical values can stand only once.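 1) Cells in 96-well plates. 2) Compound, 48 h, 5 concentrations. 3) Linear interpolation between surrounding doses. 4) Unreached endpoint = highest concentration. The concentration for 50% growth inhibition is given as GI50. TGI: concentration producing complete growth inhibition.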

Tests used:
Assay in all cases: NCI anticancer screen, dose series, 48 h
[1] = test system: HCT-15 colon
[2] = test system: NCI-H226 lung
[3] = test system: CCRF-CEM leukemia
[4] = test system: ACHN renal
[5] = test system: MDA-MB-231 breast
[6] = test system: SN12C renal
[7] = test system: T-47D breast
[8] = test system: SK-MEL-2 melanoma
[9] = test system: BT-549 breast
[10] = test system: OVCAR-5 ovarian

Structure (SMILES)	GI50 [1]	TGI [1]	GI50 [2]	TGI [2]	GI50 [3]	TGI [3]	GI50 [4]	TGI [4]	GI50 [5]	TGI [5]	GI50 [6]	TGI [6]	GI50 [7]	TGI [7]	GI50 [8]	TGI [8]	GI50 [9]	TGI [9]	GI50 [10]	TGI [10]
CN(C)CCCn1c2c(c3ccc(N4CCNCC4)cc3c1=O)C(=O)c1ccccc1-2	728 nM	3.04 µM	564 nM	2.9 µM	335 nM	1.94 µM	392 nM	2.63 µM	505 nM	2.05 µM	329 nM	1.79 µM	1550 nM	4.42 µM	1710 nM	3.38 µM	1270 nM	2.77 µM	2120 nM	5.57 µM
O=c1c2cc(F)ccc2sc2c(NCCCNCCO)nc3ccc(F)cc3c12	1490 nM	2.91 µM	1760 nM	3.52 µM	2240 nM	5.08 µM	1540 nM	2.89 µM	1450 nM	2.88 µM	1580 nM	3.05 µM	1940 nM	4.48 µM	2040 nM	4.34 µM	11100 nM	26.7 µM	1620 nM	3.04 µM
CC(=O)O[C@@H]1[C@H]2O[C@H]2[C@H]2O[C@@]2(COC(=O)c2ccccc2)[C@H]1OC(C)=O		> 100 µM		> 100 µM		> 100 µM		> 100 µM		> 100 µM		> 100 µM		> 100 µM		> 100 µM		> 100 µM		> 100 µM
CCc1ccc2cc3c(ccc4ccccc43)c3c2c1CC3	> 100000 nM	> 100 µM	> 100000 nM	> 100 µM	> 100000 nM	> 100 µM	> 100000 nM	> 100 µM	> 100000 nM	> 100 µM	> 100000 nM	> 100 µM	> 100000 nM	> 100 µM	> 100000 nM	> 100 µM	> 100000 nM	> 100 µM	> 100000 nM	> 100 µM
Cc1n[nH]c(C)c1-c1c(C)n[nH]c1C	1830 nM	4.53 µM	1770 nM	3.97 µM	1450 nM	> 100 µM	1520 nM	2.88 µM	1830 nM	4.53 µM	2210 nM	5.82 µM	1910 nM	7.09 µM	2320 nM	5.51 µM	1970 nM	4.26 µM	2130 nM	4.85 µM
FC(F)(F)c1ccc(-c2cnc(-c3nn[nH]n3)nc2NC2CCCCCC2)cc1	> 10000 nM	> 10 µM	> 10000 nM	> 10 µM	> 10000 nM	> 10 µM	> 10000 nM	> 10 µM	> 10000 nM	> 10 µM	> 10000 nM	> 10 µM	> 10000 nM	> 10 µM	> 10000 nM	> 10 µM	> 10000 nM	> 10 µM	> 10000 nM	> 10 µM
COc1cnc2c(c1)C(=O)c1c-2n(CCCN2CCNCC2)c(=O)c2cc(F)ccc12	126 nM	1.3 µM	150 nM	0.507 µM	42.1 nM	1.06 µM	55.3 nM	0.554 µM	479 nM	1.94 µM	80.6 nM	0.89 µM	266 nM	13.2 µM	1710 nM	3.37 µM	1250 nM	4.32 µM	334 nM	1.51 µM
CS(=O)c1cc(=O)c2ccccc2s1 (stereo not given)		6.75 µM		35.5 µM		4.45 µM		3.66 µM		32.8 µM		13.2 µM		6.52 µM		24.7 µM		27.6 µM		18.2 µM
Nc1ncnc2c1ncn2C1SC(CO)C(O)C1O (stereo not given)	3810 nM	31.8 µM	66500 nM	> 100 µM	> 100000 nM	> 100 µM	31800 nM	> 100 µM	10900 nM	34.8 µM	19300 nM	62.3 µM	5240 nM	26 µM	78800 nM	> 100 µM	12700 nM	43.2 µM	> 100000 nM	> 100 µM
C=C(C)[C@@H]1CC[C@]2(C(=O)OC)CC[C@]3(C)[C@H](CC[C@@H]4[C@@]5(C)CC/C(=N\OCCC(=NCCC#N)NOCCC#N)C(C)(C)[C@@H]5CC[C@]43C)[C@@H]12	5770 nM	> 50 µM	5430 nM	15.5 µM	11700 nM	> 50 µM	10500 nM	> 50 µM	10300 nM	> 50 µM	7280 nM	14.7 µM	3470 nM	> 50 µM	13800 nM	> 50 µM	11300 nM	> 50 µM	16700 nM	> 50 µM
CC1SC(c2ccc(OCc3ccccc3)cc2)N(NC(=O)C(O)(c2ccccc2)c2ccccc2)C1=O (stereo not given)	2740 nM	12.7 µM	3790 nM	15.8 µM	2100 nM	5.69 µM	2740 nM	9.38 µM	4310 nM	15.5 µM	3950 nM	13.8 µM	3520 nM	14.9 µM	4360 nM	18.8 µM	5450 nM	22.4 µM	3810 nM	16.1 µM
COc1cc(-c2nn(-c3cccc(NC(=O)NCCNC(=O)c4ccccc4)c3)cc2-c2ccncc2)ccc1Cl	1970 nM	> 100 µM	2730 nM	83.4 µM	1410 nM	> 100 µM	3140 nM	> 100 µM	2990 nM	> 100 µM	556 nM	> 100 µM	1250 nM	8.79 µM	2340 nM	5.43 µM	2210 nM	8.05 µM	3780 nM	> 100 µM
CC(=O)Nc1ccc(S(=O)(=O)N2C(=O)CCC2C(=O)Nc2ccccc2)cc1 (stereo not given)	293 nM	14.8 µM	3160 nM	20.9 µM	433 nM	14.2 µM	241 nM	14.3 µM	1380 nM	9.49 µM	2680 nM	22.6 µM	283 nM	14.6 µM	1340 nM	9.05 µM	1570 nM	14.6 µM	3160 nM	20.2 µM
N/C(=N\O)c1cn(C2OC(CO)C(O)C2O)c2ncnc(N)c12 (stereo not given)	133 nM	> 47.8 µM	446 nM	49.6 µM	303 nM	> 38.6 µM	76.4 nM	> 35.9 µM	197 nM	18.9 µM	152 nM	> 36.1 µM	108 nM		128 nM	0.4 µM	311 nM	17.7 µM	507 nM	> 40.5 µM
CC1(C)CCC(c2ccc(Cl)cc2)=C(CN2CCN(c3ccc(C(=O)NS(=O)(=O)c4ccc(N[C@H](CCN5CCOCC5)CSc5ccccc5)c(S(=O)(=O)C(F)(F)F)c4)cc3)CC2)C1	2020 nM	4.35 µM	1620 nM	3.13 µM	61.8 nM	7.43 µM	1720 nM	3.14 µM	642 nM	2.17 µM	1530 nM	3.33 µM	2050 nM	5.25 µM	1860 nM	4.35 µM	1960 nM	3.6 µM	1850 nM	4.05 µM
CN1CC[C@H](N(C)C(=O)N2CC(c3cc(F)ccc3F)=C[C@@]2(CO)c2ccccc2)[C@H](F)C1	4.18 nM	> 100 µM	40400 nM	> 100 µM	17 nM	> 100 µM	37.3 nM and 19.5 nM	> 100 µM	11.2 nM	15.3 µM	63.1 nM	> 100 µM	63.5 nM	> 100 µM	28.2 nM	79.4 µM	42.1 nM	37.7 µM	66.9 nM and 21.2 nM	> 100 µM
Nc1nc(-c2ccccn2)c(-c2ccc3ncccc3n2)s1	> 25000 nM	> 25 µM	> 25000 nM	> 25 µM	> 25000 nM	> 25 µM	> 25000 nM	> 25 µM	> 25000 nM	> 25 µM	> 25000 nM	> 25 µM	> 25000 nM	> 25 µM	> 25000 nM	> 25 µM	> 25000 nM	> 25 µM	> 25000 nM	> 25 µM
Nc1c2ccccc2nc2ccccc12	1950 nM and 2270 nM	11.1 µM and 7.23 µM	1240 nM and 2810 nM	3.21 µM and 8.24 µM	1690 nM and 2300 nM	7.27 µM and 65.4 µM	669 nM and 1890 nM	8.61 µM and 7.19 µM	1990 nM and 2510 nM	6.09 µM and 8.37 µM	1500 nM and 2610 nM	12.4 µM and 10.5 µM	1620 nM and 2990 nM	6.38 µM and 7.61 µM	1740 nM and 3870 nM	3.41 µM and 11.4 µM	4040 nM and 5120 nM	15.4 µM and 26.2 µM	2710 nM and 3360 nM	13.4 µM and 8.16 µM
N#CSc1c[nH]c2cccc(/C=C/C(=O)/C=C(O)/C=C/c3cccc4[nH]cc(SC#N)c34)c12	186 nM	0.895 µM	607 nM	1.34 µM	159 nM	6.47 µM	351 nM	1.04 µM	553 nM	1.21 µM	364 nM	1.57 µM	173 nM	2.27 µM	829 nM	1.93 µM	500 nM	1.63 µM	714 nM	2.04 µM
c1c[nH]c(CN2CCN(Cc3ncc[nH]3)CC2)n1		> 100 µM		> 100 µM		> 100 µM		> 100 µM		> 100 µM		> 100 µM		> 100 µM		> 100 µM		> 100 µM		> 100 µM
O=C1Nc2ccc(I)cc2/C1=C/c1cc(Br)c(O)c(Br)c1	> 16000 nM and 17200 nM	> 65.8 µM	> 25000 nM and 27800 nM	> 25 µM and 81.2 µM	> 18500 nM and 6240 nM	> 25 µM and 51.3 µM	> 19800 nM and 21800 nM	> 85.8 µM	> 20400 nM and 16100 nM	> 25 µM and 44.2 µM	> 25000 nM and 25900 nM	> 80.8 µM	> 18500 nM and 15400 nM	> 82.8 µM	19600 nM and 14700 nM	> 25 µM and 37.5 µM	> 17900 nM and 8070 nM	> 25 µM and 32.7 µM	> 25000 nM and 21500 nM	> 25 µM and 51.7 µM
O=C(/C=C/c1ccccc1)c1ccccn1		24.9 µM and 50 µM		37.5 µM and > 100 µM		45.4 µM and 57.6 µM		28.9 µM and 31 µM	15600 nM and 35800 nM	30.7 µM and > 100 µM		27.3 µM and 31.8 µM		31.2 µM and 62.7 µM		43.8 µM		37.4 µM and 52.4 µM	11500 nM and 24200 nM	29 µM and > 100 µM
Nc1nc(N)c2nc(CNc3ccc(C(=O)NC(CCC(=O)O)C(=O)O)cc3)cnc2n1 (stereo not given)	42.2 nM and < 10 nM	> 100 µM		> 100 µM	< 10 nM	> 100 µM	< 10 nM	> 100 µM	> 23100 nM and 6990 nM	> 100 µM	< 10 nM	> 100 µM	316 nM and 1370 nM	> 100 µM	> 100000 nM	> 100 µM	399 nM and 213 nM	> 100 µM	37.3 nM and 30.7 nM	> 100 µM
O=c1[nH]c2c(ccc3cnccc32)c2c1CCC2	357 nM	> 100 µM	252 nM	0.897 µM	248 nM	0.708 µM	279 nM	> 100 µM	361 nM	> 100 µM	365 nM	> 100 µM	352 nM	> 100 µM	221 nM	0.673 µM	172 nM	0.532 µM	461 nM	> 100 µM
NC1=Nc2cc(OCCCCN3Cc4ccccc4C3)c(OCC3CC3)cc2C12CCCC2	1480 nM	3.59 µM	1320 nM	3.48 µM	2480 nM	9.5 µM	1710 nM	3.24 µM	1550 nM	3.02 µM	1700 nM	3.41 µM	1780 nM	4.29 µM	1840 nM	3.49 µM	1570 nM	3.33 µM	2300 nM	6.4 µM
